Results on five molecules are retold here after patent publication US20040167220A1, “Environmentally safe fungicide and bactericide formulations” (priority 2003, published 2004).

The subject of test [1] is Alternaria solani. Put plainly: In vitro PDA plate test against fungal plant pathogens. Also: key: 0 - no activity, mycelial growth occurred; Fs - Fungistatic activity; Fd - Fungicidal effect - mycelial growth was completely inhibited. It counts as cell-based.
Test [2] has as its system Botrytis cinerea. The description is as above. It counts as cell-based.
Test [3] deals with Colletotrichum graminicola. The test is described as above. It counts as cell-based.
The next test deals with Fusarium proliferatum. The description is as above. It counts as cell-based.
The test system of the next test is Rhytisma acerinum. Described as above. Format: cell-based.
For the next test, the system named is Fusarium moniliforme. The description is as above. It counts as cell-based. As to conditions: sodium benzoate 5.0 mM, pH adjusted with citric acid.
The test system of test [4] is Fusarium nygamai. Described as above. Format: cell-based. The conditions noted are these: sodium benzoate 5.0 mM, pH adjusted with citric acid.
Another test relates to Sclerotinia homoeocarpa. Described as above. The conditions noted are these: sodium benzoate 5.0 mM, pH adjusted with citric acid. Format: cell-based.
Another test has as its system Sclerotinia sclerotiorum. The description is as above. Format: cell-based. The conditions noted are these: sodium benzoate 5.0 mM, pH adjusted with citric acid.
Test [5] deals with Alternaria solani. The conditions noted are these: preservative used without the acidic pH of the invention.
Test [6] has as its system Botrytis cinerea. The conditions noted are these: preservative used without the acidic pH of the invention.
The subject of test [7] is Fusarium nygamai. As to conditions: preservative used without the acidic pH of the invention.
The mark [8] stands for this setting: potassium sorbate and citric acid in PDA, examined after 2, 4, 6 days, viability on untreated PDA.
[9] abbreviates: potassium sorbate/citric acid formulations, with or without surfactants, in PDA.
Where [10] appears, read: sodium benzoate 5.0 mM, pH adjusted with citric acid, in PDA.
For Activity against Botrytis cinerea in this document: key: 0 - no activity, mycelial growth occurred; Fs - Fungistatic activity; Fd - Fungicidal effect - mycelial growth was completely inhibited.
For Activity against Colletotrichum gram. in this document: key: 0 - no activity, mycelial growth occurred; Fs - Fungistatic activity; Fd - Fungicidal effect - mycelial growth was completely inhibited.
For Activity against Fusarium proliferatum in this document: key: 0 - no activity, mycelial growth occurred; Fs - Fungistatic activity; Fd - Fungicidal effect - mycelial growth was completely inhibited.

In the case of `C/C=C/C=C/C(=O)[O-].[K+]` [Control A, potassium sorbate], the “Activity against Alternaria solani” value with Alternaria solani [1] (setting [8]) amounted to 0. For the same molecule, the “Activity against Botrytis cinerea” value in the test on Botrytis cinerea [2] (setting [8]) was determined as 0. The “Activity against Colletotrichum gram.” value in test [3] (setting [8]) is listed as 0. In the test on Fusarium proliferatum (setting [8]), the “Activity against Fusarium proliferatum” value came to 0. Further, the “Activity against Rhytisma acerinum” value in the test on Rhytisma acerinum (setting [8]) worked out at 0.
For `C/C=C/C=C/C(=O)[O-].[K+]` [Control B, potassium sorbate], in the test with Alternaria solani [1] (setting [9]), the “Activity against Alternaria solani” value was found to be 0. Also, the “Activity against Botrytis cinerea” value in the test on Botrytis cinerea [2] (setting [9]) was 0. Further, the “Activity against Colletotrichum gram.” value in [3] (setting [9]) is recorded as 0. Further, in the test on Fusarium proliferatum (setting [9]), the “Activity against Fusarium proliferatum” value was found to be 0. The “Activity against Rhytisma acerinum” value in the test with Rhytisma acerinum (setting [9]) was 0.
Consider `O=C([O-])c1ccccc1.[Na+]` [Control C, sodium benzoate], for which the “Activity against Alternaria solani” value with Alternaria solani [1] (setting [10]) is recorded as 0. Moreover, in the test on Botrytis cinerea [2] (setting [10]), the “Activity against Botrytis cinerea” value came out at 0. Further, in [3] (setting [10]), the “Activity against Colletotrichum graminicola” value turned out to be 0. The “Activity against Fusarium moniliforme” value with Fusarium moniliforme is on record as 0. Besides, the “Activity against Fusarium nygamai” value with Fusarium nygamai [4] was 0. Also, the “Activity against Fusarium proliferatum” value in the test on Fusarium proliferatum (setting [10]) stood at 0. The “Activity against Rhytisma acerinum” value with Rhytisma acerinum (setting [10]) is 0. In addition, in the test on Sclerotinia homoeocarpa, the “Activity against Sclerotinia homoeocarpa” value stood at 0. In the test with Sclerotinia sclerotiorum, the “Activity against Sclerotinia sclerotiorum” value came to 0.
With `C/C=C/C=C/C(=O)[O-].[K+]` [potassium sorbate], in the test on plant pathogens (1 mM (0.0015%), pH 4.1, surfactants added), the pathogens killed is given as 7 out of 8. In the test with plant pathogens (5 mM (0.075% solution), pH 4.1), the “activity against the broad range of plant pathogens tested” value is “cidal activity”. Further, in the test with plant pathogens (10 mM (0.15% solution), pH above 7.0), the “activity against plant pathogens” value is “inactive or at best exhibits only static activity”. Further, in the test on plant pathogens (down to 1 mM sorbate or lower, pH 4.1), the “number of pathogens with cidal activity” value is on record as “two”. For the same molecule, the “concentration required to kill Alternaria solani” value in the test on Alternaria solani [5] was “greater than 2%”. Further, the “concentration required to kill Botrytis cinerea” value in the test on Botrytis cinerea [6] was “greater than 2%”. Besides, in the test on Fusarium nygamai [7], the “concentration required to kill Fusarium nygamai” value is “greater than 2%”.
As to `O=C([O-])c1ccccc1.[Na+]` [sodium benzoate], the “control of the plant pathogens” value in the test on plant pathogens (5 mM (0.072% solution), pH above 7.0) is listed as “ineffective”. In the test with plant pathogens (5 mM, pH 4.1), the “species tested being killed” value is 10 out of 10. In addition, in the test with plant pathogens (5 mM, pH 4.6), the “species with cidal activity” value is 6 out of 10.
